From PubChem BioAssay (NCI)
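Tested at 5 concentrations; 48 h exposure; 96-well plates; endpoints linearly interpolated, else capped at highest concentration. TGI marks complete inhibition of growth.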

System: DMS 114 small cell lung
Experiment: NCI tumour cell line growth inhibition, 48 h

SMILES	TGI [µM]
CN(C)C(=S)/N=c1\ssc(=S)n1Cc1ccccc1	0.456
Cc1ccc(N2C(=O)CS/C2=C(\C#N)c2nc3ccccc3[nH]2)cc1	> 100
CCOc1ccc(/C(Cl)=C(\C=O)c2ccc(OC)c(OC)c2)cc1OCC	66.1
COC(=O)C(C#CCCCCC#CC(NC(=O)OCc1ccccc1)(C(=O)OC)C(F)(F)F)(NC(=O)OCc1ccccc1)C(F)(F)F (centres undefined)	> 100
N#C/C(c1nc2ccccc2[nH]1)=c1\s/c(=C/c2ccc(Cl)cc2)c(=O)n1-c1ccccc1	> 100
COC(=O)CC1NC(=O)[C@@H]1C(C)O (some centres undefined)	> 100
O=C1c2ccccc2OP(=O)(OCC(F)(F)F)OC1(C(F)(F)F)C(F)(F)F (centres undefined)	> 100
COc1ccc(N=Cc2ccc(N(CCC#N)S(=O)(=O)c3ccccc3)cc2)cc1	> 100
CCOC(=O)/C=C/n1c2ccccc2c(=O)c2ccccc21	> 100
Nc1nc(SCc2ccc([N+](=O)[O-])cc2)nc2c1ncn2C1OC(CO)C(O)C1O (centres undefined)	> 100
C=CCC(N(C)C(=O)[C@H](Cc1ccccc1)NC(=O)OCc1ccccc1)P(=O)(Oc1ccccc1)Oc1ccccc1 (some centres undefined)	> 100

System: M19-MEL melanoma
Experiment: NCI tumour cell line growth inhibition, 48 h

SMILES	TGI [µM]
CN(C)C(=S)/N=c1\ssc(=S)n1Cc1ccccc1	> 100
Cc1ccc(N2C(=O)CS/C2=C(\C#N)c2nc3ccccc3[nH]2)cc1	> 100
CCOc1ccc(/C(Cl)=C(\C=O)c2ccc(OC)c(OC)c2)cc1OCC	> 100
COC(=O)C(C#CCCCCC#CC(NC(=O)OCc1ccccc1)(C(=O)OC)C(F)(F)F)(NC(=O)OCc1ccccc1)C(F)(F)F (centres undefined)	> 100
N#C/C(c1nc2ccccc2[nH]1)=c1\s/c(=C/c2ccc(Cl)cc2)c(=O)n1-c1ccccc1	> 100
COC(=O)CC1NC(=O)[C@@H]1C(C)O (some centres undefined)	> 100
O=C1c2ccccc2OP(=O)(OCC(F)(F)F)OC1(C(F)(F)F)C(F)(F)F (centres undefined)	> 100
COc1ccc(N=Cc2ccc(N(CCC#N)S(=O)(=O)c3ccccc3)cc2)cc1	> 100
CCOC(=O)/C=C/n1c2ccccc2c(=O)c2ccccc21	> 100
Nc1nc(SCc2ccc([N+](=O)[O-])cc2)nc2c1ncn2C1OC(CO)C(O)C1O (centres undefined)	> 100
C=CCC(N(C)C(=O)[C@H](Cc1ccccc1)NC(=O)OCc1ccccc1)P(=O)(Oc1ccccc1)Oc1ccccc1 (some centres undefined)	> 100

System: RXF-631 renal
Experiment: NCI tumour cell line growth inhibition, 48 h

SMILES	TGI [µM]
COC(=O)C(C#CCCCCC#CC(NC(=O)OCc1ccccc1)(C(=O)OC)C(F)(F)F)(NC(=O)OCc1ccccc1)C(F)(F)F (centres undefined)	> 100
COc1ccc(N=Cc2ccc(N(CCC#N)S(=O)(=O)c3ccccc3)cc2)cc1	> 100
